Literature values, collected in US20170333424A1, “Amorphous Vortioxetine Hydrobromide” (Hexal AKTIENGESELLSCHAFT, priority 2014, published 2017).
Structures can show the parent of a compound that is named as a salt.

Conditions: class II means high permeability, but low solubility

## Cc1ccc(Sc2ccccc2N2CCNCC2)c(C)c1 [vortioxetine hydrobromide]
  BCS class: class II
